# Source: article PMC7358525, “Characterization of PF-6142, a Novel, Non-Catecholamine Dopamine Receptor D1 Agonist, in Murine and Nonhuman Primate Models of Dopaminergic Activation” (Frontiers in Pharmacology, 2020)
# Assays:
# [1] = system: ACh levels in the rat PFC; assay: Prefrontal cortex acetylcholine levels via microdialysis, rat; assay type: in vivo
# Source text: Adult male Sprague-Dawley rats (280–360 g) were obtained from Charles-River Laboratories, Raleigh, NC and male C57BL/6J DRD1a WT and D1 DA receptor knockout mice (DRD1a-905781) were obtained from The Jackson Laboratories (Bar Harbor, ME). Animals were housed on a 12-h light/dark cycle with free access to food and water and allowed to acclimate for at least 5 d after arrival. Aseptic technique was used during the surgical procedure in order to prevent infection. On the day of the procedure animals were anesthetized with isoflurane (4%) and their heads shaved. The animals were then placed into a Kopf stereotaxic frame, the surgical area disinfected by swabbing with Provodine solution, and the area isolated with a sterile surgical drape. Anesthesia was maintained with isoflurane (2.5%–3%) delivered through a nose cone using a Univentor 400 anesthesia unit. Animals were given a 0.1 ml subcutaneous (s.c.) injection of Metacam (NSAID, meloxicam, 5 mg/ml, Boehringer Ingelheim) as a post-operative analgesic. Marcaine (bupivacaine, 0.5%, Hospira, Lake Forest, IL), a long acting local anesthetic, was administered s.c. at the surgical area to minimize pain and discomfort. […]
# For conventional analysis, ACh was analyzed by high performance liquid chromatography (HPLC) utilizing a modification of the BAS ACh-choline assay kit (BAS part # MF-8910). […]
# [2] = system: time spent awake, in SWS and REM sleep; assay: Rat polysomnography; assay type: in vivo; details: 5.6 mg/kg s.c., first 4 h
# Source text: Model 4ET telemetry device components (Data Sciences International, St Paul, MN, USA) were bilaterally placed in subcutaneous pockets on the dorsal flank of adult male Sprague-Dawley rats (200–400 grams). Two pairs of leads were implanted superficially to burr holes drilled over the frontal cortex (stainless steel screws, Plastics One, Roanoke, VA at coordinates: A-P = +1.5 mm, M-L = 1.5 mm) and parietal cortex (coordinates: A-P = −3.7 mm, M-L = −2.2 mm), and the cerebellum bilaterally to be used as ground and reference for electroencephalographic (EEG) recordings. A stainless-steel wire (Plastics One, Roanoke, VA) was implanted into the neck muscle to monitor electromyogram (EMG). All recordings were performed inside the home cages of animals using RPC-2 telemetry receivers (Data Sciences International, St. Paul, MN) at a sampling rate of 500 Hz for data acquisition. Baseline data, while on vehicle, were obtained for 24 h prior to compound administration. PF-6142 (1.0 or 5.6 mg/kg, s.c.) was administered acutely following the baseline day.
# Raw EEG traces were analyzed using custom scripts in MATLAB (The Mathworks, Natick, MA, version 7.8 (R2009a)) to evaluate spectral changes between treatment groups. Raw EEG data were read into the MATLAB software, segmented to match that of the polysomnography (PSG) data (see below) and fast Fourier transforms (FFTs) were performed. Only data collected on the parietal lead were the subject of statistical analyses. PSG analysis was applied to all EEG/EMG data and utilized an in-house algorithm developed in LabView (National Instruments, Austin TX) as previously described ([Harvey et al., 2013]).
# Relative power data in each band aggregated over 2 h-long time bins, while on drug, were normalized to baseline levels in corresponding time bins relative to dosing. For statistical analysis the R software was used. The effects of two within factors, dose and time, on cumulative time spent in three stages, awake, REM, and NREM sleep were assessed using generalized linear mixed model. […]
# [3] = Plasma exposure (PK), mouse; assay type: in vivo; details: 5.6 mg/kg SC, 1 h
# Experimental: Across the set of experiments, PK was either collected from satellite animals or in separate, dedicated studies. In addition to plasma PK, exposures were obtained in brain tissue for rat and mouse, and plasma protein binding and brain tissue binding were measured. Using the measured exposures, partitioning, and binding parameters, and the […]
# human D5 receptor = details: stated in discussion, no data or reference printed; cited from earlier work
smiles,measurement,setting,value
Cc1cc(Oc2nccc3occc23)ccc1-c1c(C)ncc2nccn12 [PF-6142],"PF-6142 mediated increase in cortical ACh after repeated dosing (AUC 75-180 min, day 5)",[1]; 10 mg/kg SC for five consecutive days,maintained
same,"cortical ACh levels, time course","[1]; PF-6142 10 mg/kg SC acute on day 5 after subchronic vehicle, vs 5 d vehicle",increased cortical ACh levels
same,decrease of time spent in slow-wave sleep relative to vehicle,[2],88.1%
same,"difference in fraction of REM sleep, vehicle vs high dose group",[2],88.2%
same,increase of time spent awake,[2],246.9%
same,PF-6142 plasma concentration,[3],332 ng/mL
same,affinity,human D5 receptor,moderate affinity
